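48-hour exposure; five concentrations; linearly interpolated endpoints. GI50: concentration for 50% inhibition of growth. The concentration for full growth arrest is given as TGI.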
Experiments:
Assay in all cases: NCI anticancer screen, dose series, 48 h
SK-MEL-28 melanoma = test system: SK-MEL-28 melanoma
KM12 colon = test system: KM12 colon
A549 NSCLC = test system: A549 NSCLC
SN12C renal = test system: SN12C renal
SW-620 colon = test system: SW-620 colon
ACHN renal = test system: ACHN renal
TK-10 renal = test system: TK-10 renal
NCI-H522 lung = test system: NCI-H522 lung
MALME-3M melanoma = test system: MALME-3M melanoma
SF-295 CNS = test system: SF-295 CNS

Structure (SMILES) | TGI (SK-MEL-28 melanoma) [µM] | TGI (KM12 colon) [µM] | TGI (A549 NSCLC) [µM] | TGI (SN12C renal) [µM] | TGI (SW-620 colon) [µM] | TGI (ACHN renal) [µM] | TGI (TK-10 renal) [µM] | TGI (NCI-H522 lung) [µM] | TGI (MALME-3M melanoma) [µM] | TGI (SF-295 CNS) [µM] | GI50 (SK-MEL-28 melanoma) [µM] | GI50 (KM12 colon) [µM] | GI50 (A549 NSCLC) [µM] | GI50 (SN12C renal) [µM] | GI50 (SW-620 colon) [µM] | GI50 (ACHN renal) [µM] | GI50 (TK-10 renal) [µM] | GI50 (NCI-H522 lung) [µM] | GI50 (MALME-3M melanoma) [µM] | GI50 (SF-295 CNS) [µM]
CCOc1cccc2ccc[n+](CC)c12 | > 100 | > 100 | > 100 | > 100 | > 100 | > 100 | > 100 | > 100 | > 100 | > 100 | – | – | – | – | – | – | – | – | – | –
Cc1cc(CC(C)CC(C)(C)C)n(O)c(=O)c1 (stereo not given) (tested in a mixture with another compound) | > 63.2 | 21.3 | > 49.7 | 32.7 | > 81.1 | > 37.6 | > 74.7 | 4.23 | 13 | 18.5 | 0.548 | 0.602 | 0.5 | 0.468 | 0.478 | 0.385 | 5.09 | 0.475 | 0.482 | 0.447
Cn1c(=O)c2nc(-c3ccc(Cl)cc3)oc2n(C)c1=O | > 100 | > 100 | > 100 | > 100 | > 100 | > 100 | > 100 | > 100 | > 100 | > 100 | – | – | – | – | – | – | – | – | – | –
O=c1c2cccc3cccc(c4n1CCN=4)c32 | > 100 | > 100 | > 100 | > 100 | > 100 | > 100 | 69.1 | > 100 | > 100 | > 100 | – | – | – | – | – | – | – | – | – | –
Cc1ccc(C)c(C2NC(=O)c3ccccc3N2)c1 (stereo not given) | > 100 | > 70.8 | > 100 | > 100 | > 49.6 | > 89 | > 100 | 3.52 | > 95.7 | > 33.1 | – | – | – | – | – | – | – | – | – | –
CCOC(=N)/C(=C1\OC(N)=C(c2ccc(Cl)cc2)C1=O)c1ccc(Cl)cc1 | 31.7 | 34.4 | 66.7 | 28.6 | 32.1 | 51 | 51.9 | 29.4 | 28.2 | 55.8 | – | – | – | – | – | – | – | – | – | –
N#CC1=C(N)NC(N2CCOCC2)=NC12Nc1ccccc1N2 | > 100 | > 100 | > 100 | > 100 | > 100 | > 100 | 46.6 | 59.3 | > 100 | > 100 | 55.8 | > 100 | 39.8 | 30.1 | 26.7 | 33.3 | 10.7 | 23.5 | 30.5 | 32.6
C[N+](C)(C)CC(=O)N/N=C(\C(=O)NC1=C(Cl)C(=O)c2ccccc2C1=O)C(C#N)c1csc(-c2ccc([N+](=O)[O-])cc2)n1 (stereo not given) | > 100 | > 100 | > 100 | > 100 | > 100 | > 100 | > 100 | > 100 | > 100 | > 100 | – | – | – | – | – | – | – | – | – | –
O=S1Nc2c(Cl)cc(Cl)c3c(Cl)cc(Cl)c(c23)N1 | > 100 | > 100 | > 100 | > 100 | > 100 | 73.8 | > 100 | 89.8 | > 100 | > 100 | – | – | – | – | – | – | – | – | – | –
CN1C(=O)N[C@H]2[C@@H]3NC(=O)c4ccc(Br)n4[C@@H]3C[C@]21O | 0.262 | 5.47 | 4.47 | 2.19 | 12.5 | 2.93 | 4.51 | 0.31 | 0.731 | 3.21 | 0.0317 | 0.191 | 0.27 | 0.106 | 0.116 | 0.187 | 0.429 | 0.0384 | 0.103 | 0.273
CCCN(CCCC(NC(C)=O)C(=O)NCc1ccccc1)C(=O)NCCCl (stereo not given) | > 100 | > 100 | > 100 | > 100 | > 100 | > 100 | > 100 | > 100 | > 100 | > 100 | – | – | – | – | – | – | – | – | – | –
CSc1n[n+]2c(s1)SCCC2 | > 100 | > 100 | 92.3 | > 100 | > 100 | > 100 | > 100 | > 100 | > 100 | > 100 | – | – | – | – | – | – | – | – | – | –
NC(=O)c1cccc(Nc2nccc(Nc3cccc4[nH]ncc34)n2)c1 | > 25 | > 25 | > 25 | > 25 | > 25 | > 25 | > 25 | > 25 | > 25 | > 25 | 10.1 | 9.78 | > 24 | 8.74 | 9.09 | 10.9 | 20.5 | 8.85 | 24.4 | 15.4
CN(Cc1cc(Cl)cc(Cl)c1)CC(C(=O)c1ccccc1)c1ccccc1 (stereo not given) | 9.8 | 17.5 | > 100 | 16.3 | 2.92 | 2.16 | 23 | 4.39 | 24 | > 100 | – | – | – | – | – | – | – | – | – | –

— PubChem BioAssay (NCI)
